Experimental data taken from US9616047B2, “Inhibitors of beta-catenin in treatment of colorectal cancer” (Regents of the University of Minnesota, priority 2014, dated 2017).
“Also recorded” adds a separate entry of the source.

Assays:
β-catenin = assay: Ex vivo pull-down with compound-conjugated Sepharose 4B beads and colon cancer cell lysate: β-catenin; type: binding; conditions: colon cancer cell lysates; compound-conjugated Sepharose 4B beads
Method: (§1) Protein extracts (500 μg) of colon cancer cells were mixed with Sepharose-4B beads (as a negative control) or chemical-conjugated Sepharose 4B beads (100 μl) in reaction buffer. After being washed five times with buffer, the proteins were visualized by Western blot analysis.

[1] = system: β-catenin/Tcf-4 luciferase activity; assay: β-catenin/Tcf-4 luciferase reporter assay (TOP-flash/FOP-flash) in HT29; type: cell-based; conditions: normalized to Renilla, 24 h treatment
Source text: (§2) FIGS. 1A-C. HI-B1, HI-B5 and HI-B9 inhibit beta-catenin/Tcf-4 luciferase activity in colon cancer cell lines. (A) Chemical structures of three compounds. (B-C) Effects of HI-B1, HI-B5 and HI-B9 on the β-catenin/Tcf-4 luciferase activity in HCT116 (B) and HT29 (C) colon cancer cell lines. […] Colon cancer cells were co-transfected with reporter genes harboring the β-catenin/Tcf binding site (TOP-flash) or a mutant β-catenin/Tcf binding site (FOP-flash), respectively, and the Renilla gene. The luciferase activity was normalized to Renilla activity.
(§3) Transient transfection was performed using jetPEI and assays to detect firefly luciferase and Renilla activities according to the manufacturer's manual (Promega). Briefly, cells were seeded onto 10-cm plates and co-transfected with 400 ng of the Renilla luciferase internal control gene and 4 μg of the TOP-flash luciferase reporter construct containing three tandem Tcf consensus binding sites upstream of luciferase cDNA, or the FOPflash luciferase reporter construct, a plasmid with mutated Tcf binding sites. After 16 h of transfection, cells were trypsinized and seeded onto 48-well plates, and cells were treated with respective chemicals for 24 h. Luciferase and Renilla activities were measured using their substrates.

Tcf-4 = molecular target: T1, Tcf-4 (Homo sapiens, UniProt Q9NQB0); assay: Ex vivo pull-down with compound-conjugated Sepharose 4B beads and colon cancer cell lysate: Tcf-4; type: binding; conditions: HCT116 and HT29 cell lysate
T1 construct: Protein extracts (500 μg) of colon cancer cells were mixed with Sepharose-4B beads; endogenous in cells; host or cells: HCT116 and HT29 cell lysate
Method: as §1

[2] = system: target genes expressed by β-catenin/Tcf-4 complex; assay: Quantitative real-time PCR of β-catenin/Tcf-4 target genes; type: cell-based; conditions: HI-B5 40 μM or HI-B9 20 μM; 12 hr of treatment
Method: FIGS. 3A-D. HI-B5 and HI-B9 reduce mRNA expression level of target genes expressed by β-catenin/Tcf-4 complex. (A) axin2, (B) cyclin D1, (C) c-myc and (D) pparδ mRNA expression was reduced by HI-B5 40 μM or HI-B9 20 μM treatment. Esculetin was used as a positive control. Expression level of each gene was detected after 12 hr of chemical treatment.
RNA isolation was performed according to the Trizol reagent protocol (catalog #15596-018, Invitrogen). The concentration and the purity of RNA was determined by measuring the absorbance at 260/280 nm. cDNA was synthesized using 1 μg of RNA and the amfiRevert Platinum cDNA synthesis master mix (GenDEPOT, Cat. No. R5600). For real time PCR, 1 μl of the synthesized cDNA was loaded into 1 well of a 96-well plate for detection of specific target genes using the Power SYBR Green PCR master mix (ABsystems, #4367659).

β-catenin/Tcf-4 complex = assay: Immunoprecipitation assay of β-catenin/Tcf-4 complex in colon cancer cells; type: cell-based
Method: Colon cancer cells treated or not treated with low or high concentrations of compounds for 24 h were disrupted with lysis buffer (50 mmol/L Tris, pH 8, 250 mmol/L NaCl, 5 mmol/L EDTA, 0.1% NP-40, 10% glycerol, and 1× protease inhibitor cocktail). Cell lysates were cleared by centrifugation, and immunoprecipitations were performed by incubating overnight with anti-β-catenin. Agarose beads were then added and samples incubated for 3 h at 4° C. After removing unbound proteins by washing five times with lysis buffer, bound proteins were harvested by boiling in sample buffer, and resolved by 8% SDS-PAGE. β-Catenin and Tcf-4 proteins were visualized using a chemiluminescence reagent (Amersham).

[3] = system: β-catenin/Tcf-4 luciferase activity; assay: β-catenin/Tcf-4 luciferase reporter assay (TOP-flash/FOP-flash) in HCT116; type: cell-based; conditions: normalized to Renilla, 24 h treatment
Source text: as §2, §3

HT-29 colon cancer cells = assay: Soft agar assay, anchorage-independent growth, HT29; type: cell-based
Method: (§4) FIG. 2. […] HCT116 and HT-29 colon cancer cells. Colony formation of two cell lines were inhibited by treatment of β-catenin inhibitor candidates. Cells (8×10^3/ml) were incubated with or without HI-B5 or HI-B9 compounds in 1 mL of 0.33% BME agar containing 10% FBS or in 3.5 mL of 0.5% BME agar containing 10% FBS. The cultures were maintained at 37° C. in a 5% CO2 incubator for 7 days, after which the cell colonies were counted under a microscope.
(§5) Cells (8×10^3 per well) suspended in Basal Medium Eagle (BME) supplemented with 10% FBS were added to 0.3% agar with different doses of chemicals in a top layer over a basal layer of 0.6% agar. The cultures were maintained at 37° C. in a 5% CO2 incubator for 2 wk and then colonies were counted under a microscope using the Image-Pro Plus Software (v.4) program (Media Cybernetics).

[4] = system: HCT116 colon cancer cells; assay: Soft agar assay, anchorage-independent growth, HCT116; type: cell-based
Method: as §4, §5

Tcf-4/β-catenin complex [5] = assay: Immunoprecipitation and Western blotting in 293T cells transfected with wildtype or mutant β-catenin; type: cell-based; conditions: 293T cells transfected with mutant β-catenin
Method: (§6) We used computational biology technology and medicinal chemistry to identify potential inhibitors of β-catenin. […] To further confirm binding, wildtype or mutant β-catenin was transfected into 293T cells and immunoprecipitation and Western blotting were performed. […] Overall, esculetin appears to be an effective, non-toxic inhibitor of the Tcf-4/β-catenin complex.

Tcf-4/β-catenin complex [6] = molecular target: T2, Tcf-4/β-catenin complex (Homo sapiens, UniProt P35222); assay: as above; type: cell-based; conditions: 293T cells transfected with wildtype β-catenin
T2 construct: expressed in transfected cells; host or cells: 293T cells
T2 sequence (P35222 2-781): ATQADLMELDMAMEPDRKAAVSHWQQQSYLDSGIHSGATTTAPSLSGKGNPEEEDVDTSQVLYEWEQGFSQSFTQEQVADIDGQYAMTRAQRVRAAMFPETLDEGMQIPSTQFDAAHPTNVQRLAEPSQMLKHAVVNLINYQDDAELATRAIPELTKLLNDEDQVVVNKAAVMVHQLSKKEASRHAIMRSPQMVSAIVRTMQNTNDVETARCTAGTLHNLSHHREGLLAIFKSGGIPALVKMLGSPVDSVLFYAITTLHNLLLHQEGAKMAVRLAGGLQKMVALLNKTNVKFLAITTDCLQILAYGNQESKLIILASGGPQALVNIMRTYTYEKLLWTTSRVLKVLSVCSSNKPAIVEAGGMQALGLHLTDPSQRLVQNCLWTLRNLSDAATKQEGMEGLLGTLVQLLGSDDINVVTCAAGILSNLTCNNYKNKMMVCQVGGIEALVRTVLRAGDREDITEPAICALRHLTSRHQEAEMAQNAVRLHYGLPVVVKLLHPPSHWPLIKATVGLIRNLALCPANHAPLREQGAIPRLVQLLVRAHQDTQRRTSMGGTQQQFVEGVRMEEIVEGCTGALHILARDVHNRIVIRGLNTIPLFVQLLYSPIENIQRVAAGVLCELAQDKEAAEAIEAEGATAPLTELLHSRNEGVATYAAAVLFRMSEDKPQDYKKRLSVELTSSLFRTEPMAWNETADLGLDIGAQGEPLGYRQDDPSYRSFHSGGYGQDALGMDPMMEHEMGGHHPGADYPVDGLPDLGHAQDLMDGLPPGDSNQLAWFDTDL
Method: as §6

[7] = system: xenograft colon cancer tumor; assay: Xenograft colon cancer tumor growth in nude mice; type: in vivo

T1 sequence (Q9NQB0 whole entry): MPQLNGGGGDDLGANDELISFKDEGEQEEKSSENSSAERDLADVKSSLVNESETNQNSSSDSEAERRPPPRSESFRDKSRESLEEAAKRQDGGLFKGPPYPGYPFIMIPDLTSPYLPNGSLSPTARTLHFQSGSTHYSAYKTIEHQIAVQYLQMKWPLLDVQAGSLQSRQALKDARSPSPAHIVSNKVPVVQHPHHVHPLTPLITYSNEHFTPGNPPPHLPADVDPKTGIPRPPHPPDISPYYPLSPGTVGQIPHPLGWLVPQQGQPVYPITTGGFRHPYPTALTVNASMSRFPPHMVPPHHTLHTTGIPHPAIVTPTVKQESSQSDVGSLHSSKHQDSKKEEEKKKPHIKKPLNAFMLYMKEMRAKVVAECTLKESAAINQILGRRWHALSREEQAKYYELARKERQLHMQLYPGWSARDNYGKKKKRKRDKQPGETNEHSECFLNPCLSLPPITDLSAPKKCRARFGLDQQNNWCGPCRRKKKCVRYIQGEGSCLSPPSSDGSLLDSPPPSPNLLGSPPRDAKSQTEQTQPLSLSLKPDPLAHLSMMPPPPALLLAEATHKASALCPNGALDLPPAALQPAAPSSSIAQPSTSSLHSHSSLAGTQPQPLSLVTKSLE

## CC1=C(/C=C/C(=O)/C=C2/C(=O)Nc3ccc(F)cc32)C(C)(C)CCC1 [HI-B5]
β-catenin
  binding to β-catenin (ex vivo pull-down): verified the binding; also recorded: can interact with β-catenin
[1]
  transcriptional activity of β-catenin/Tcf-4 (luciferase activity): suppress transcriptional activity of the β-catenin/Tcf-4 in a dose-dependent manner
Tcf-4
  binding to Tcf-4 (ex vivo pull-down): not Tcf-4
[2]
  axin2 mRNA expression: reduced
  c-myc mRNA expression: reduced
  cyclin D1 mRNA expression: reduced
  pparδ mRNA expression: reduced
β-catenin/Tcf-4 complex; HCT116
  Tcf-4 expression level after chemical treatment: not altered
β-catenin/Tcf-4 complex; HCT116 cell line, dose-dependent
  disruption of β-catenin/Tcf-4 complex (immunoprecipitation): caused disruption of β-catenin/Tcf-4 complex
[3]
  transcriptional activity of β-catenin/Tcf-4 (luciferase activity): suppress transcriptional activity of the β-catenin/Tcf-4 in a dose-dependent manner
HT-29 colon cancer cells
  anchorage-independent growth (colony formation in soft agar): suppress anchorage-independent growth
[4]
  anchorage-independent growth (colony formation in soft agar): suppress anchorage-independent growth

## O=c1ccc2cc(O)c(O)cc2o1 [esculetin]
β-catenin
  binding to β-catenin (ex vivo pull-down): verified the binding
Tcf-4/β-catenin complex [5]
  effect on mutant Tcf-4/β-catenin complex: had no effect
Tcf-4/β-catenin complex [6]
  disruption of wildtype Tcf-4/β-catenin complex: effectively disrupted
β-catenin/Tcf-4 complex; colon cancer cells
  disruption of nuclear Tcf-4/β-catenin complex: disrupted the nuclear Tcf-4/β-catenin complex in a dose-dependent manner
[3]
  transcriptional activity of β-catenin/Tcf-4 (luciferase activity): inhibited transcriptional activity of the β-catenin/Tcf complex
[7]; nude mice
  c-Myc and cyclin D1 expression in tumors: decreases
  tumor size: significantly smaller
  xenograft colon cancer tumor growth: effectively inhibited xenograft colon cancer tumor growth
[7]; overall statement
  toxicity: non-toxic

## CC1(C)CCC(C)(C)c2cc(C(=O)CC3(O)C(=O)Nc4ccc(F)cc43)ccc21 (stereo not drawn) [HI-B9]
β-catenin
  binding to β-catenin (ex vivo pull-down): verified the binding
[1]
  transcriptional activity of β-catenin/Tcf-4 (luciferase activity): suppress transcriptional activity of the β-catenin/Tcf-4 in a dose-dependent manner
[2]
  axin2 mRNA expression: reduced
  c-myc mRNA expression: reduced
  cyclin D1 mRNA expression: reduced
  pparδ mRNA expression: reduced
[3]
  transcriptional activity of β-catenin/Tcf-4 (luciferase activity): suppress transcriptional activity of the β-catenin/Tcf-4 in a dose-dependent manner
HT-29 colon cancer cells
  anchorage-independent growth (colony formation in soft agar): suppress anchorage-independent growth
[4]
  anchorage-independent growth (colony formation in soft agar): suppress anchorage-independent growth
